The values that follow come from ChEMBL document CHEMBL4732153, “Phenyl 4-(2-oxopyrrolidin-1-yl)benzenesulfonates and phenyl 4-(2-oxopyrrolidin-1-yl)benzenesulfonamides as new antimicrotubule agents targeting the colchicine-binding site” (Eur J Med Chem, 2021).

Data set [1] addresses T1, Tubulin (Homo sapiens) (UniProt P68371+Q9H4B7+P0DPH7+P68366+Q13509+Q71U36+P04350+Q3ZCM7+P07437+P68363+Q9BQE3+Q6PEY2+Q13885+Q9BVA1+Q9BUF5). The data set is described as follows: Disruption of microtubule polymerization in human M21 cells at 5 times IC50 measured after 24 hrs by DAPI staining based immunofluorescence microscopic analysis. In kind it is cell-based.
The species named for data set [2] is Sus scrofa. The data set is described as follows: Inhibition of porcine brain tubulin polymerization at 15 uM measured after 60 mins by fluorescence assay.
In data set [3] the target is Tubulin beta (Homo sapiens) (UniProt P68371+Q9H4B7+Q13509+P04350+Q3ZCM7+P07437+Q13885+Q9BVA1+Q9BUF5+A6NNZ2). In words: Inhibition of EBI binding to colchicine-binding site of beta-tubulin in human M21 cells at 100 to 1000 times IC50 preincubated for 2 hrs followed by EBI addition and measured after 1.5 hrs by Western blot analysis. In kind it is cell-based. The note with it: time 3.5 hrs.

In a further data set the test system is HT-1080. The data set is described as follows: Antiproliferative activity against human HT-1080 cells assessed as reduction in cell viability measured after 48 hrs by sulforhodamine B assay. In kind it is functional, cell-based. The note with it: HT-1080, 48 h.
Data set [4] concerns M21. In words: Cell cycle arrest in human M21 cells assessed as accumulation at G0/G1 phase at 2 to 5 times IC50 measured after 24 hrs by DAPI staining based flow cytometry (reference value: 65.5%). In kind it is functional.
Data set [5] concerns M21. In words: Cell cycle arrest in human M21 cells assessed as accumulation at SubG1 phase at 2 to 5 times IC50 measured after 24 hrs by DAPI staining based flow cytometry (reference value: 5%). Format: functional.
A short description of data set [6]: Solubility of compound in DMSO at 15 uM. Format: physicochemical.
The test system of a further data set is HT-29. In words: Antiproliferative activity against human HT-29 cells assessed as reduction in cell viability measured after 48 hrs by sulforhodamine B assay. Format: functional, cell-based. To be noted: HT-29, 48 h.
Data set [7] has as its target T1, Tubulin (Homo sapiens). In words: Disruption of microtubule polymerization in human M21 cells assessed as induction of mitotic abnormalities at 5 times IC50 measured after 24 hrs by DAPI staining based immunofluorescence microscopic analysis. In kind it is cell-based.
In data set [8] the test system is M21. The data set is described as follows: Cell cycle arrest in human M21 cells assessed as accumulation at S phase at 2 to 5 times IC50 measured after 24 hrs by DAPI staining based flow cytometry (reference value: 16.1%). Format: functional.
Data set [9] relates to M21. The data set is described as follows: Antiproliferative activity against human M21 cells assessed as reduction in cell viability measured after 48 hrs by sulforhodamine B assay. In kind it is functional, cell-based. The note with it: M21, 48 h.
Data set [10] can be described thus: Toxicity in chick embryo assessed as death at 1 ug, iv incubated for 7 days relative to control. Format: organism-based. The note with it: in vivo, at 1 µg, time 7 day, read-out: Activity.
The test system of data set [11] is M21. The data set is described as follows: Cell cycle arrest in human M21 cells assessed as accumulation at G2/M phase at 2 to 5 times IC50 measured after 24 hrs by DAPI staining based flow cytometry (reference value: 13.4%). Format: functional.
The subject of another data set is MCF7. In words: Antiproliferative activity against human MCF7 cells assessed as reduction in cell viability measured after 48 hrs by sulforhodamine B assay. Format: functional, cell-based. To be noted: MCF7, 48 h.
Data set [12] deals with M21. The data set is described as follows: Cell cycle arrest in human M21 cells assessed as accumulation at S phase at 11 nM measured after 24 hrs by DAPI staining based flow cytometry (reference value: 16.1%). Format: functional.
For data set [13], the system named is M21. The data set is described as follows: Cell cycle arrest in human M21 cells assessed as accumulation at SubG1 phase at 11 nM measured after 24 hrs by DAPI staining based flow cytometry (reference value: 5%). In kind it is functional.
Data set [14] relates to M21. In words: Cell cycle arrest in human M21 cells assessed as accumulation at G2/M phase at 11 nM measured after 24 hrs by DAPI staining based flow cytometry (reference value: 13.4%). In kind it is functional.
The test system of data set [15] is M21. In words: Cell cycle arrest in human M21 cells assessed as accumulation at G0/G1 phase at 11 nM measured after 24 hrs by DAPI staining based flow cytometry (reference value: 65.5%). In kind it is functional.
Data set [16] in a line: Solubility of compound in DMSO at 30 uM. In kind it is physicochemical.
The nature of data set [17]: Toxicity in chick embryo assessed as death at 20 ug, iv incubated for 7 days relative to control. In kind it is organism-based. To be noted: in vivo, at 20 µg, time 7 day, read-out: Activity.
The species entered for data set [18] is Sus scrofa. In words: Inhibition of porcine brain tubulin polymerization at 30 uM measured after 60 mins by fluorescence assay.

Active and inactive are the calls of the source. The calls are words filed in the database; no cut-off is given here.

For the molecule `COc1cc(NS(=O)(=O)c2ccc(N3CCCC3=O)cc2)cc(OC)c1OC`, the outcome on Tubulin (Homo sapiens) [1] and at Tubulin (Homo sapiens) [7] was Active. For the same molecule, in the data set listed under Sus scrofa [2], the inhibition result was “Active”. In [3], the “Inhibition of EBI binding (active/inactive)” value (shortened to “Inhibition … (active/inactive)”) was “Active”. Further, the 50% inhibitory concentration (IC50) in the data set on HT-1080 was determined as 130 nM; in the data set with HT-29, 80 nM; in the data set with M21 [9] it was 56 nM; in the data set on MCF7, 88 nM. The Activity in the data set with M21 [4] is listed as 8.2%; with M21 [5], 3.9%; with M21 [8], 7.5%; with M21 [11], 80.4%. Further, the solubility entry in [6] was “Soluble”. The mortality at 168 h in data set [10] worked out at 8%.

On to `COc1ccc(/C=C\c2cc(OC)c(OC)c(OC)c2)cc1O` [COMBRETASTATIN A4], for which the Activity was determined as 7.2% with M21 [12], 4.1% in the data set with M21 [13], 79.5% with M21 [14] and 9.2% in the data set with M21 [15]. The inhibition entry in the data set listed under Sus scrofa [2] is “Active”. In addition, the “Inhibition … (active/inactive)” value in data set [3] is “Active”. Besides, the half-inhibitory concentration (IC50) with HT-1080 is 2.2 nM; in the data set with HT-29, 5.1 nM; in the data set on M21 [9] it was 2.2 nM; in the data set on MCF7 it was 1.9 nM.

Regarding `COc1cc(OC)cc(OS(=O)(=O)c2ccc(N3CCCC3=O)cc2)c1`, the outcome at Tubulin (Homo sapiens) [1] and on Tubulin (Homo sapiens) [7] was Active. Besides, the “Inhibition … (active/inactive)” value in data set [3] is “Active”. In addition, the solubility result in data set [16] is recorded as “Soluble”. Also, the half-maximal inhibitory concentration (IC50) in the data set with HT-1080 was 26 nM; in the data set on HT-29 it was 39 nM; in the data set with M21 [9], 12 nM; with MCF7, 21 nM. Also, the Activity amounted to 32.7% in the data set on M21 [4], 12.1% in the data set on M21 [5], 9.6% in the data set with M21 [8] and 45.6% with M21 [11]. In addition, in [17], the mortality at 168 h is 18%. Further, the inhibition entry in the data set filed under Sus scrofa [18] is “Active”.
